Measured values as given in the NIST ThermoML archive (doi:10.1021/je800527p).

Assay: mn = molality of the nth substance listed, in mol/kg
Conditions: 101 kPa, Liquid

N[C@@H](CC(=O)NCC(=O)O)C(=O)NCC(=O)O [L-aspartoylbisglycine] + O
Conditions	mass density [kg/m3]
288.15 K, m1 = 0.02634	1001.74
288.15 K, m1 = 0.03248	1002.34
288.15 K, m1 = 0.03979	1003.07
288.15 K, m1 = 0.04516	1003.6
288.15 K, m1 = 0.05155	1004.23
288.15 K, m1 = 0.05974	1005.03
288.15 K, m1 = 0.06457	1005.5
288.15 K, m1 = 0.06951	1005.98
298.15 K, m1 = 0.02287	999.295
298.15 K, m1 = 0.02484	999.489
298.15 K, m1 = 0.02795	999.79
298.15 K, m1 = 0.03159	1000.15
298.15 K, m1 = 0.0337	1000.35
298.15 K, m1 = 0.03757	1000.73
298.15 K, m1 = 0.04282	1001.24
298.15 K, m1 = 0.0486	1001.8
298.15 K, m1 = 0.05367	1002.29
298.15 K, m1 = 0.05892	1002.8
303.15 K, m1 = 0.02228	997.821
303.15 K, m1 = 0.02508	998.095
303.15 K, m1 = 0.02783	998.36
303.15 K, m1 = 0.0319	998.757
303.15 K, m1 = 0.03772	999.316
303.15 K, m1 = 0.0429	999.814
303.15 K, m1 = 0.04971	1000.47
303.15 K, m1 = 0.0554	1001.02
303.15 K, m1 = 0.06187	1001.64
313.15 K, m1 = 0.02228	994.368
313.15 K, m1 = 0.02508	994.635
313.15 K, m1 = 0.02783	994.898
313.15 K, m1 = 0.0319	995.29
313.15 K, m1 = 0.03772	995.842
313.15 K, m1 = 0.0429	996.336
313.15 K, m1 = 0.04971	996.987
313.15 K, m1 = 0.0554	997.526
313.15 K, m1 = 0.06187	998.14

NCC(=O)N[C@@H](CS)C(=O)NCC(=O)O [glycyl-L-cysteinylglycine] + O
Conditions	mass density [kg/m3]
288.15 K, m1 = 0.01633	1000.63
288.15 K, m1 = 0.02087	1001.05
288.15 K, m1 = 0.02582	1001.51
288.15 K, m1 = 0.02984	1001.88
288.15 K, m1 = 0.03474	1002.34
288.15 K, m1 = 0.0395	1002.78
288.15 K, m1 = 0.04097	1002.91
288.15 K, m1 = 0.04442	1003.23
288.15 K, m1 = 0.04953	1003.71
303.15 K, m1 = 0.02103	997.568
303.15 K, m1 = 0.02497	997.92
303.15 K, m1 = 0.02788	998.184
303.15 K, m1 = 0.03046	998.417
303.15 K, m1 = 0.03394	998.731
303.15 K, m1 = 0.0374	999.043
303.15 K, m1 = 0.04008	999.279
303.15 K, m1 = 0.04358	999.593
303.15 K, m1 = 0.05003	1000.17
303.15 K, m1 = 0.05296	1000.43
313.15 K, m1 = 0.02094	994.099
313.15 K, m1 = 0.03109	995.001
313.15 K, m1 = 0.03597	995.437
313.15 K, m1 = 0.03941	995.739
313.15 K, m1 = 0.04508	996.242
313.15 K, m1 = 0.05002	996.672
313.15 K, m1 = 0.05218	996.867
313.15 K, m1 = 0.05751	997.331

NCC(=O)N[C@@H](Cc1cnc[nH]1)C(=O)NCC(=O)O [glycyl-L-histidylglycine] + O
Conditions	mass density [kg/m3]
288.15 K, m1 = 0.004019	999.501
288.15 K, m1 = 0.00501	999.6
288.15 K, m1 = 0.006072	999.708
288.15 K, m1 = 0.007051	999.802
288.15 K, m1 = 0.008127	999.911
288.15 K, m1 = 0.00901	1000
288.15 K, m1 = 0.01012	1000.11
288.15 K, m1 = 0.01088	1000.19
288.15 K, m1 = 0.01205	1000.31
298.15 K, m1 = 0.004009	997.442
298.15 K, m1 = 0.007226	997.762
298.15 K, m1 = 0.008041	997.838
298.15 K, m1 = 0.00901	997.939
298.15 K, m1 = 0.01009	998.038
298.15 K, m1 = 0.01109	998.142
298.15 K, m1 = 0.01227	998.254
303.15 K, m1 = 0.00404	996.046
303.15 K, m1 = 0.00498	996.138
303.15 K, m1 = 0.006103	996.247
303.15 K, m1 = 0.00711	996.346
303.15 K, m1 = 0.007975	996.427
303.15 K, m1 = 0.01106	996.73
303.15 K, m1 = 0.01225	996.842
313.15 K, m1 = 0.005108	992.711
313.15 K, m1 = 0.006051	992.804
313.15 K, m1 = 0.006936	992.89
313.15 K, m1 = 0.0082	993.012
313.15 K, m1 = 0.01022	993.207
313.15 K, m1 = 0.01138	993.309
313.15 K, m1 = 0.01232	993.4
